In patent EP1734031A1, “NOVEL 2-(ALPHA-N-PENTANONYL)BENZOETES, THEIR PREPARATION AND USE” (priority 2004, dated 2005):
Marks after values point to notes of the source that are not given here.

Legend:
[1] = Stability to humidity (high humidity test, purity by HPLC); type: physicochemical; details: 10 days
[2] = tested on: model rats of middle cerebral artery thrombosis (MCAT); test: Effects on neural symptoms of MCAT rats (behavioral score); type: in vivo, SD rats; details: for Scores 6 hours: 6 hours after operation; for Scores 6 hours / Scores 24 hours: full mark 4; for Scores 24 hours: 24 hours after operation
[3] = tested on: model rats of middle cerebral artery thrombosis (MCAT); test: Effects on cerebral infarct area of MCAT rats (TTC staining); type: in vivo, SD rats; details: for Cerebral infarct tissue weight/total brain weight: 24 hours after operation; for Inhibition (cerebral infarct): vs. model group; for cerebral infarct compared with the model group (in words): 50 mg/kg, P<0.05
[4] = in vivo; details: both, ICR, mouse, po
[5] = tested on: thrombosis of artery-vein bypass in rats; test: Effects on thrombosis of artery-vein bypass in rats; type: in vivo, SD rats; details: for Dry-weight of thrombus / Wet-weight of thrombus: once per day for 3 days; for Inhibition (dry-weight of thrombus) / Inhibition (wet-weight of thrombus): vs. thrombus model group
[6] = tested on: ICR mice; details: mouse, in vivo, po, 168 h
[7] = Thermal stability (purity by HPLC); details: 10 days at 60°C
Description: Tests were conducted for 10 days at 60°C in accordance with the testing method as described in Pharmacopoeia of P.R. China, 2000 ed., appendix XIX C of part two, "Guideline for testing the stability of medicament: method for testing thermal stability". The purity was determined in accordance with the test described in Pharmacopoeia of P.R. China, 2000 ed., appendix VD of part two, by using HPLC method, C18 column, mobile phase of acetonitrile:0.02M sodium dihydrogen phosphate = 40:60, detecting wavelength of 230 nm, flow rate of 1 ml/min.

[8] = Stability to light (purity by HPLC); details: light test, 10 days
Description: Tests were conducted for 10 days in accordance with the testing method as described in Pharmacopoeia of P.R. China, 2000 ed., appendix XIX C of part two, "Guideline for testing the stability of medicament: method for testing stability to light". The purity was determined in accordance with the test described in Pharmacopoeia of P.R. China, 2000 ed., appendix VD of part two, by using HPLC method, C18 column, mobile phase of acetonitrile:0.02M sodium dihydrogen phosphate = 40:60, detecting wavelength of 230 nm, flow rate of 1 ml/min.

[9] = 50 mg/kg by gavage, vs. model group
[10] = 100 mg/kg by gavage, vs. model group
[11] = 200 mg/kg by gavage, vs. model group

Compound | Scores 6 hours ([2]; 50 mg/kg by gavage) | Scores 24 hours ([2]; 50 mg/kg by gavage) | % inhibition at hour 24 [2, 9] | Scores 6 hours ([2]; 100 mg/kg by gavage) | Scores 24 hours ([2]; 100 mg/kg by gavage) | % inhibition at hour 24 [2, 10] | Scores 6 hours ([2]; 200 mg/kg by gavage) | Scores 24 hours ([2]; 200 mg/kg by gavage) | % inhibition at hour 24 [2, 11] | Cerebral infarct tissue weight/total brain weight ([3]; 50 mg/kg by gavage) | Inhibition (cerebral infarct) ([3]; 50 mg/kg by gavage) | Cerebral infarct tissue weight/total brain weight ([3]; 100 mg/kg by gavage) | Inhibition (cerebral infarct) ([3]; 100 mg/kg by gavage) | Cerebral infarct tissue weight/total brain weight ([3]; 200 mg/kg by gavage) | Inhibition (cerebral infarct) ([3]; 200 mg/kg by gavage) | cerebral infarct compared with the model group (in words) [3] | Dry-weight of thrombus ([5]; 50 mg/kg by gavage) | Wet-weight of thrombus ([5]; 50 mg/kg by gavage) | Inhibition (dry-weight of thrombus) ([5]; 50 mg/kg) | Inhibition (wet-weight of thrombus) ([5]; 50 mg/kg) | further results
CCCCC(O)c1ccccc1C(=O)[O-].[K+] (stereo not drawn) [Potassium 2-(α-hydroxypentyl)benzoate] | 3.50±0.71 | 3.30±0.48 | 9.34% | 3.55±0.52 | 3.00±0.89 | 19.57% | 3.45±0.52 | 2.73±0.79 | 26.81% | 6.16±2.46% | 16.87% | 5.73±2.20 % | 27.83% | 5.37±2.00 % | 29.43% |  |  |  |  |  | decomposition after absorbing moisture [1]: highly decomposed; LD50 at 7 days [4]: 1230 mg/kg
CCCCC(=O)c1ccccc1C(=O)O.CCCCC(=O)c1ccccc1C(=O)O.c1ccc(CNCCNCc2ccccc2)cc1 [2-(α-n-pentanonyl)benzoate of N,N'-dibenzylethylene diamine] | 3.45±0.69 | 2.91±0.70 |  | 3.45±0.52 | 2.36±0.67 |  | 3.27±0.79 | 2.55±0.52 |  | 5.14±2.17 % | 30.63% | 4.68±1.69 % | 41.06% | 4.60±1.26 % | 39.55% | significantly reduced | 39.0 ± 10.8 mg | 207.1 ± 45.3 mg | 23.98% | 20.10% | Dry-weight of thrombus ([5]; 100 mg/kg by gavage): 29.9 ± 13.6 mg; Wet-weight of thrombus ([5]; 100 mg/kg by gavage): 157.9 ± 67.9 mg; Inhibition (dry-weight of thrombus) ([5]; 100 mg/kg): 41.72%; Inhibition (wet-weight of thrombus) ([5]; 100 mg/kg): 39.08%; Dry-weight of thrombus ([5]; 200 mg/kg by gavage): 32.3 ± 12.5 mg; Wet-weight of thrombus ([5]; 200 mg/kg by gavage): 191.7 ± 34.8 mg; Inhibition (dry-weight of thrombus) ([5]; 200 mg/kg): 37.04%; Inhibition (wet-weight of thrombus) ([5]; 200 mg/kg): 26.04%; LD50 value [6]: 3078.8 mg/kg; decomposed product (thermal stability) [7]: no decomposed product; decomposed product (stability to light) [8]: no decomposed product
CCCCC(=O)c1ccccc1C(=O)O [Calcium 2-(α-n-pentanonyl)benzoate, calcium 2-(α-n-pentanonyl)benzoate] | 3.18±0.60 | 2.73±0.65**^,s | 25.00% | 3.40±0.52 | 2.90±0.57 | 22.25% | 3.27±0.79 | 2.45±0.82 | 34.32% | 5.01±1.79 % | 32.39% | 5.23±2.04 % | 34.13% | 4.65±2.13 % | 38.90% | significantly reduced | 40.2 ± 18.0 mg | 199.8 ± 30.4 mg | 21.64% | 22.92% | alleviation on neural symptoms at 24 hours after the operation (in words) ([2]; 50 mg/kg, vs. model group, P<0.01 or P<0.05): significantly alleviation; Dry-weight of thrombus ([5]; 100 mg/kg by gavage): 34.2 ± 13.1 mg; Wet-weight of thrombus ([5]; 100 mg/kg by gavage): 189.8 ± 52.3 mg; Inhibition (dry-weight of thrombus) ([5]; 100 mg/kg): 33.33%; Inhibition (wet-weight of thrombus) ([5]; 100 mg/kg): 26.77%; Dry-weight of thrombus ([5]; 200 mg/kg by gavage): 30.4 ± 13.9 mg; Wet-weight of thrombus ([5]; 200 mg/kg by gavage): 163.2 ± 64.4 mg; Inhibition (dry-weight of thrombus) ([5]; 200 mg/kg): 40.74%; Inhibition (wet-weight of thrombus) ([5]; 200 mg/kg): 37.04%; LD50 value [6]: 2683.8 mg/kg; decomposed product (thermal stability) [7]: no decomposed product; decomposed product (stability to light) [8]: no decomposed product
